Data reported in patent US5057493A, “Novel antibiotics R106” (priority 1988, dated 1991).
Starred links: 1 amine or outer side, 2 acyl side, 3 side chain; linkers in the order of their positions; H or OH if unused. Non-standard residues stand in square brackets, D forms with d. Residues, ends and D or L forms follow the SMILES beside them. ξ: configuration not given here. X2 = CN(C(C(=O)[*:2])C(O)c1ccccc1)[*:1]; ξNMeVal(3-OH) = CNC(C(=O)O)C(C)(C)O; X6 = CC(C)=C(C(=O)[*:2])N(C)[*:1]; NMeF = CN[CH](Cc1ccccc1)C(=O)O; X1 = CCC(C)C(O[*:1])C(=O)[*:2]; NMeV = CN[CH](C(=O)O)C(C)C; Hiv = CC(C)[CH](O)C(=O)O

What was measured:
[1] = tested on: Candida glabrata TIMM 1062; assay: MIC by agar dilution method, casitone agar; type: cell-based; settings: Table 5
Protocol: (§1) The minimum inhibitory concentration (MIC) of each antibiotic against various fungi was determined by the agar dilution method using casitone agar medium (2.0% glucose, 0.9% bacto-casitone, 1.0% yeast extract, 0.1% KH2 PO4, 0.1% Na2 HPO4, 1.0% sodium citrate, 2.0% agar: concentrations are all by w/v).
(§2) Each minimum growth inhibitory concentration was determined after culturing at 27° C. for 4 days.

[2] = tested on: Cryptococcus neoformans TIMM 0354; assay: MIC by agar dilution method, casitone agar; type: cell-based; settings: Table 5
Protocol: as §1, §2

[3] = tested on: Candida albicans TIMM 0136; assay: MIC by agar dilution method, casitone agar; type: cell-based; settings: Table 5
Protocol: as §1, with “The antibiotics R106 of the present invention are active against various fungi including pathogenic fungi. The” for “The”

[4] = tested on: Candida albicans TIMM 0171; assay: MIC by agar dilution method, casitone agar; type: cell-based; settings: Table 5
Protocol: as §1, with “The antibiotics R106 of the present invention are active against various fungi including pathogenic fungi. The” for “The”

[5] = tested on: Candida albicans TIMM 1768; assay: MIC by agar dilution method, casitone agar; type: cell-based; settings: Table 5
Protocol: as §1, with “The antibiotics R106 of the present invention are active against various fungi including pathogenic fungi. The” for “The”

[6] = tested on: Candida kefyr TIMM 0301; assay: MIC by agar dilution method, casitone agar; type: cell-based; settings: Table 5
Protocol: as §1, with “The antibiotics R106 of the present invention are active against various fungi including pathogenic fungi. The” for “The”

[7] = 50% lethal dose (LD50) in mice; type: in vivo
Description: All of the antibiotics R106 show low toxicity. The results of 50% lethal dose (LD50) obtained when each of representative compounds of the present invention was given to mice intravenously, intraperitoneally and orally are shown in Table 7.

| SMILES | minimum inhibitory concentration (MIC) [1] | minimum inhibitory concentration (MIC) [2] | minimum inhibitory concentration (MIC) [3] | minimum inhibitory concentration (MIC) [4] | minimum inhibitory concentration (MIC) [5] | minimum inhibitory concentration (MIC) [6] | LD50 ([7]; i.p.) [mg/kg] | LD50 ([7]; i.v.) [mg/kg] | LD50 ([7]; p.o.) [mg/kg] |
| --- | --- | --- | --- | --- | --- | --- | --- | --- | --- |
| CCC(C)C1NC(=O)C2CCCN2C(=O)C(Cc2ccccc2)N(C)C(=O)C(Cc2ccccc2)NC(=O)C(C(C)C)N(C)C(=O)C(C(C)C)OC(=O)C(C(C)(C)O)N(C)C(=O)C(CC(C)C)NC(=O)C(C(C)C)N(C)C1=O (stereo not drawn) [Compound 2] (cyclo([ξNMeVal(3-OH)][Hiv][NMeV]F[NMeF]PI[NMeV]L); configuration not given here) | 0.20 | 1.56 | 0.10 | 0.10 | 0.78 | 0.20 | > 200 | > 100 | > 200 |
| CCC(C)C1NC(=O)C2CCCN2C(=O)C(C(O)c2ccccc2)N(C)C(=O)C(Cc2ccccc2)NC(=O)C(C(C)C)N(C)C(=O)C(C(C)CC)OC(=O)C(C(C)(C)O)N(C)C(=O)C(CC(C)C)NC(=O)C(C(C)C)N(C)C1=O (stereo not drawn) [Compound 5] (cyclo([X2]PI[NMeV]L[ξNMeVal(3-OH)][X1][NMeV]F); configuration not given here) | 0.20 | 3.12 | ≤ 0.05 | ≤ 0.05 | ≤ 0.05 | 0.20 | > 200 | > 100 | > 200 |
| CCC(C)C1NC(=O)C2CCCN2C(=O)C(Cc2ccccc2)N(C)C(=O)C(Cc2ccccc2)NC(=O)C(C(C)C)N(C)C(=O)C(C(C)CC)OC(=O)C(C(C)C)N(C)C(=O)C(CC(C)C)NC(=O)C(C(C)C)N(C)C1=O (stereo not drawn) [Compound 7] (cyclo([X1][NMeV]F[NMeF]PI[NMeV]L[NMeV]); configuration not given here) | > 25 | > 25 | 3.12 | 1.56 | 3.12 | 25 | > 200 | > 100 | > 200 |
| CCC(C)C1OC(=O)C(C(C)(C)O)N(C)C(=O)C(CC(C)C)NC(=O)C(C(C)C)N(C)C(=O)C(CC(C)C)NC(=O)C2CCCN2C(=O)C(Cc2ccccc2)N(C)C(=O)C(Cc2ccccc2)NC(=O)C(C(C)C)N(C)C1=O (stereo not drawn) [Compound 9] (cyclo([ξNMeVal(3-OH)][X1][NMeV]F[NMeF]PL[NMeV]L); configuration not given here) | 0.39 | 25 | ≤ 0.05 | ≤ 0.05 | 0.20 | 0.20 | > 200 | > 100 | > 200 |
| CCC(C)C1NC(=O)C2CCCN2C(=O)C(Cc2ccccc2)N(C)C(=O)C(Cc2ccccc2)NC(=O)C(C(C)C)N(C)C(=O)C(C(C)CC)OC(=O)C(=C(C)C)N(C)C(=O)C(CC(C)C)NC(=O)C(C(C)C)N(C)C1=O (stereo not drawn) [Compound 18] (cyclo([X6][X1][NMeV]F[NMeF]PI[NMeV]L); configuration not given here) | > 25 | > 25 | 6.25 | 3.12 | 25 | 25 |  |  |  |
